Our source for the IC50 values is patent US20230295157A1, “3-(1H-IMIDAZOL-2-YL)-2,3,8,8A-TETRAHYDROINDOLIZIN-5(1H)-ONE DERIVATIVES USEFUL AS FACTOR XIA INHIBITORS” (JANSSEN PHARMACEUTICA NV, priority 2020, published 2023).

One test deals with Factor XIa (Homo sapiens (Human), UniProt P03951). In words: Factor XIa inhibition assay (FLINT) utilizing a fluorophore-quencher pair peptide substrate. Format: biochemical. As to conditions: 30 min preincubation, kinetic reads over 30 min, read-out: FXIa Kin Inh IC50. The gist of the method:
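FXIa ([…]) preincubated 30 min with compound (11-point 3-fold dilution, top 100 nM, 2% DMSO), then 15 μM quenched FXI Arg146-based peptide added; Tris pH 7.5, CaCl2, BSA, CHAPS. Fluorescence 485/520 nm read kinetically every 5 min over 30 min at RT; IC50 by 4-parameter fit.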

In a further test the target is human plasma kallikrein (Homo sapiens (Human), UniProt P03952). In words: Kallikrein inhibition assay (FLINT) utilizing a quenched AMC peptide substrate. Format: biochemical. Conditions: 30 min preincubation, read-out: Kallikrein Kin Inh IC50. In a few lines:
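Fluorogenic Z-Gly-Pro-Arg-AMC cleavage (50 μM substrate, 2 nM kallikrein, Tris pH 7.5, CaCl2, BSA, CHAPS, 2% DMSO) read kinetically at 340/440 nm for 30 min after 30-min compound pre-incubation. Compounds in 11-point 3-fold series from 1 μM; percent inhibition fitted to four-parameter equation for IC50.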

Where [1] appears, read: 5Fam-KLTRAETV-K5Tamra substrate 15 μM.
Where [2] appears, read: kinetic reads over 30 min, Z-Gly-Pro-Arg-AMC substrate 50 μM.
Where [3] appears, read: 5Fam-[…]-K5Tamra substrate 15 μM.

Read-outs that look alike come from different tables or passages of the source.

Chain of human plasma kallikrein (P03952 391-638): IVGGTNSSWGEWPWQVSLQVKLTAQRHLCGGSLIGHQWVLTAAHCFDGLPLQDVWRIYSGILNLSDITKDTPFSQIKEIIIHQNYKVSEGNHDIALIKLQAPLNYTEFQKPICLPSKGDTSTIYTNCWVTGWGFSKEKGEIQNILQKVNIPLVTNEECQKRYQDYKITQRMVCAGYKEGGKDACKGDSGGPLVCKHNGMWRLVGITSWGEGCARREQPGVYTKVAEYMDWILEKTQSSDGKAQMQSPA
Chain of human plasma kallikrein (P03952 20-390 partner): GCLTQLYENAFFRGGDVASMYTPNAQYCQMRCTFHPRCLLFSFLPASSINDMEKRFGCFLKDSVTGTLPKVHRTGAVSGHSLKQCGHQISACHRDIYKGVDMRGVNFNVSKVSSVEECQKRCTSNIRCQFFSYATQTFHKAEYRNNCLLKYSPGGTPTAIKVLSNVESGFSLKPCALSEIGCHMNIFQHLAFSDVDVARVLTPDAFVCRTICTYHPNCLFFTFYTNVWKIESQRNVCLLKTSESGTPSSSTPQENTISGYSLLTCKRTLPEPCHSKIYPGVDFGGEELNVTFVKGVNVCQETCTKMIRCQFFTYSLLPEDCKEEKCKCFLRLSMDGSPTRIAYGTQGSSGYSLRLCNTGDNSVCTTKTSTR
Chain of Factor XIa (P03951 388-625): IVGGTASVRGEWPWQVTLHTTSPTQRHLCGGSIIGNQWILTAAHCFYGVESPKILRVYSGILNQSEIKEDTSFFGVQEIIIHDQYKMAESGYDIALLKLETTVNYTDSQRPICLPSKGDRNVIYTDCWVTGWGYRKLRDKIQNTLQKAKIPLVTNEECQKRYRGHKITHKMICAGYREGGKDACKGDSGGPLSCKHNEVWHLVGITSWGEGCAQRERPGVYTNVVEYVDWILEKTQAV
Chain of Factor XIa (P03951 19-387 partner): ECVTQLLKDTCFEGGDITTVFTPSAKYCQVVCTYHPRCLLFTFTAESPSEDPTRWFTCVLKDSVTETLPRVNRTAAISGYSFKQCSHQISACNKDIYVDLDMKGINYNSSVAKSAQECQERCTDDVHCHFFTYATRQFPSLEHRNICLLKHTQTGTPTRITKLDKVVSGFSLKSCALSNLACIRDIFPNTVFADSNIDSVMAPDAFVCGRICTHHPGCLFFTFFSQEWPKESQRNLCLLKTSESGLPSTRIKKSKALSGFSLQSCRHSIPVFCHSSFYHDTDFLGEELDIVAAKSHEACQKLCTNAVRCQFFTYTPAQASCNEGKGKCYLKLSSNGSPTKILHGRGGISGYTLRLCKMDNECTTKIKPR

In general, IC50 refers to the concentration needed to halve the response being measured. For `O=C1C=C(c2c(-n3cnnn3)ccc(Cl)c2F)C[C@H]2CC[C@@H](c3ncc(-c4ccnc(CO)c4F)[nH]3)N12` (single isomer, unassigned) [Example 194, (3*S,8a*R)-7-(3-chloro-2-fluoro-6-(1H-tetrazol-1-yl)phenyl)-3-(4-(3-fluoro-2-(hydroxymethyl-d2)pyridin-4-yl)-1H-imidazol-2-yl)-2,3,8,8a-tetrahydroindolizin-5(1H)-one], the IC50 at Factor XIa (setting [1]) was determined as 2.2 nM; at human plasma kallikrein (setting [2]) it was 0.0168 µM.
`O=C(O)c1sc(-c2cnc([C@@H]3CC[C@@H]4CC(c5c(-n6cc(C(F)(F)F)nn6)ccc(Cl)c5F)=CC(=O)N43)[nH]2)cc1F` (single isomer, unassigned) [Example 195, 5-(2-((3*S,8aR)-7-(3-chloro-2-fluoro-6-(4-(trifluoromethyl)-1H-1,2,3-triazol-1-yl)phenyl)-5-oxo-1,2,3,5,8,8a-hexahydroindolizin-3-yl)-1H-imidazol-yl)-3-fluorothiophene-2-carboxylic acid]: the values for the IC50 at Factor XIa (setting [1]) and at human plasma kallikrein (setting [2]) were 0.5 nM and 0.0221 µM, respectively.
Take `NC(=O)c1cc(-c2cnc([C@@H]3CC[C@@H]4CC(c5c(-n6cnnn6)ccc(Cl)c5F)=CC(=O)N43)[nH]2)ccn1` (single isomer, unassigned) [Example 206]: the IC50 at Factor XIa (setting [1]) was 10.6 nM; at human plasma kallikrein (setting [2]), 0.0095 µM.
Regarding `NC(=O)c1ncc(-c2c[nH]c([C@@H]3CC[C@H]4CC(c5c(-n6cc(C(F)(F)F)nn6)ccc(Cl)c5F)=CC(=O)N43)n2)s1` (single isomer, unassigned) [Example 209], the IC50 at Factor XIa (setting [1]) is 46.5 nM; at human plasma kallikrein (setting [2]) it was 0.0379 µM.
`NC(=O)c1ncc(-c2c[nH]c([C@@H]3CC[C@@H]4CC(c5c(-n6cc(C(F)(F)F)nn6)ccc(Cl)c5F)=CC(=O)N43)n2)s1` (single isomer, unassigned) [Example 210]: the IC50 was determined as 9.3 nM at Factor XIa (setting [1]) and 0.0207 µM at human plasma kallikrein (setting [2]).
Take `NC(=O)c1ccc(-c2cnc([C@@H]3CC[C@@H]4CC(c5c(-n6cc(C(F)(F)F)nn6)ccc(Cl)c5F)=CC(=O)N43)[nH]2)cn1` (single isomer, unassigned) [Example 212]: the figures for the IC50 on Factor XIa (setting [1]) and at human plasma kallikrein (setting [2]) were 20.5 nM and 0.0909 µM, respectively.
On to `NC(=O)c1ccc(-c2cnc([C@@H]3CC[C@H]4CC(c5c(-n6cc(C(F)(F)F)nn6)ccc(Cl)c5F)=CC(=O)N43)[nH]2)cn1` (single isomer, unassigned) [Example 213], for which the IC50 turned out to be 39.4 nM on Factor XIa (setting [1]) and 0.197 µM on human plasma kallikrein (setting [2]).
Turning to `NC(=O)c1ccc(-c2c[nH]c([C@@H]3CC[C@H]4CC(c5c(-n6cc(C(F)(F)F)nn6)ccc(Cl)c5F)=CC(=O)N43)n2)s1` (single isomer, unassigned) [Example 221], the IC50 at Factor XIa (setting [1]) is 2.3 nM; at human plasma kallikrein (setting [2]), 0.0077 µM.
For the compound `O=C1C=C(c2c(-n3cnnn3)ccc(Cl)c2F)C[C@H]2CC[C@@H](c3ncc(-c4c[nH]nc4Cl)[nH]3)N12` (single isomer, unassigned) [Example 224], the IC50 on Factor XIa (setting [1]) is 0.5 nM; at human plasma kallikrein (setting [2]), 0.008 µM.
On the same counts, the results for `NC(=O)c1ccc(-c2cnc([C@@H]3CC[C@@H]4CC(c5c(-n6cnnn6)ccc(Cl)c5F)=CC(=O)N43)[nH]2)cn1` (single isomer, unassigned) [Example 225] are 2.6 nM and 0.0166 µM.
The matching figures for `NC(=O)c1ccc(-c2cnc([C@H]3CC[C@@H]4CC(c5c(-n6cnnn6)ccc(Cl)c5F)=CC(=O)N43)[nH]2)cn1` (single isomer, unassigned) [Example 226]: 10.2 nM and 0.0384 µM.
Turning to `O=C1C=C(c2c(-n3cnnn3)ccc(Cl)c2F)C[C@H]2CC[C@@H](c3ncc(-c4ccc(CO)nc4F)[nH]3)N12` (single isomer, unassigned) [Example 235], the IC50 came to 4.7 nM on Factor XIa (setting [1]) and 0.0211 µM at human plasma kallikrein (setting [2]).
As for `O=C1C=C(c2c(-n3cnnn3)ccc(Cl)c2F)C[C@H]2CC[C@H](c3ncc(-c4c[nH]nc4C(F)(F)F)[nH]3)N12` (single isomer, unassigned) [Example 239, (3*R,8a*R)-7-(3-Chloro-2-fluoro-6-(1H-tetrazol-1-yl)phenyl)-3-(5-(3-(trifluoromethyl)-1H-pyrazol-4-yl)-1H-imidazol-2-yl)-2,3,8,8a-tetrahydroindolizin-5(1H)-one], the IC50 turned out to be 1.5 nM at Factor XIa (setting [1]) and 0.0159 µM at human plasma kallikrein (setting [2]).
`O=C1C=C(c2c(-n3cnnn3)ccc(Cl)c2F)C[C@H]2CC[C@@H](c3ncc(-c4c[nH]nc4C(F)(F)F)[nH]3)N12` (single isomer, unassigned) [Example 240, (3*S,8a*R)-7-(3-Chloro-2-fluoro-6-(1H-tetrazol-1-yl)phenyl)-3-(5-(3-(trifluoromethyl)-1H-pyrazol-4-yl)-1H-imidazol-2-yl)-2,3,8,8a-tetrahydroindolizin-5(1H)-one]: the values for the IC50 on Factor XIa (setting [1]) and at human plasma kallikrein (setting [2]) were 0.6 nM and 0.0129 µM, respectively.
As for `O=C1Cc2cc(-c3cnc([C@@H]4CC[C@@H]5CC(c6c(-n7cnnn7)ccc(Cl)c6F)=CC(=O)N54)[nH]3)ccc2N1` (single isomer, unassigned) [Example 284], the values for the IC50 at Factor XIa (setting [1]) and at human plasma kallikrein (setting [2]) were 1.3 nM and 0.0035 µM, respectively.
On the same counts, the results for `O=C1C=C(c2c(-n3cnnn3)ccc(Cl)c2F)C[C@H]2CC[C@@H](c3ncc(-c4ccc5[nH]c(=O)[nH]c5c4)[nH]3)N12` (single isomer, unassigned) [Example 286] are 1.5 nM and 0.0011 µM.
As for `CCC(=O)Nc1ccccc1-c1c[nH]c([C@@H]2CC[C@@H]3CC(c4c(-n5cnnn5)ccc(Cl)c4F)=CC(=O)N32)n1` (single isomer, unassigned) [Example 295, N-(2-(2-((3S,8aR*)-7-(3-Chloro-2-fluoro-6-(1H-tetrazol-1-yl)phenyl)-5-oxo-1,2,3,5,8,8a-hexahydroindolizin-3-yl)-1H-imidazol-4-yl)phenyl)propionamide], the IC50 is 0.7 nM on Factor XIa (setting [1]) and 0.0026 µM at human plasma kallikrein (setting [2]).
Turning to `Cn1cc(-c2ccccc2NC(=O)C2CC2)nc1[C@@H]1CC[C@@H]2CC(c3c(-n4cnnn4)ccc(Cl)c3F)=CC(=O)N21` (single isomer, unassigned) [Example 298, N-(2-(2-((3S,8aR*)-7-(3-Chloro-2-fluoro-6-(1H-tetrazol-1-yl)phenyl)-5-oxo-1,2,3,5,8,8a-hexahydroindolizin-3-yl)-1-methyl-1H-imidazol-4-yl)phenyl)cyclopropanecarboxamide], the IC50 at Factor XIa (setting [1]) is more than 100 nM; at human plasma kallikrein (μM, kinetic reads) it was 1.05 µM.
`C[C@@H]1C[C@@H](c2ncc(-c3ccc(N)nc3F)[nH]2)N2C(=O)C=C(c3c(-n4cnnn4)ccc(Cl)c3F)C[C@H]12` (single isomer, unassigned) [Example 345, (1*R,3S,8a*R)-3-(5-(6-Amino-2-fluoropyridin-3-yl)-1H-imidazol-2-yl)-7-(3-chloro-2-fluoro-6-(1H-tetrazol-1-yl)phenyl)-1-methyl-2,3,8,8a-tetrahydroindolizin-5(1H)-one]: the values for the IC50 on Factor XIa (setting [1]) and at human plasma kallikrein (setting [2]) were 2.6 nM and 0.0145 µM, respectively.
As to `C[C@H]1C[C@@H](c2ncc(-c3ccc(N)nc3F)[nH]2)N2C(=O)C=C(c3c(-n4cnnn4)ccc(Cl)c3F)C[C@@H]12` (single isomer, unassigned) [Example 346, (1*S,3S,8a*S)-3-(5-(6-Amino-2-fluoropyridin-3-yl)-1H-imidazol-2-yl)-7-(3-chloro-2-fluoro-6-(1H-tetrazol-1-yl)phenyl)-1-methyl-2,3,8,8a-tetrahydroindolizin-5(1H)-one], the IC50 on Factor XIa (setting [1]) is 1.3 nM; on human plasma kallikrein (setting [2]), 0.0082 µM.
`Nc1ccc(-c2cnc([C@@H]3CC[C@@H]4C(=O)N(c5cc(Cl)ccc5-n5cnnn5)CC(=O)N43)[nH]2)c(F)n1` (single isomer, unassigned) [Example 360, (6S*,8aR*)-6-(5-(6-amino-2-fluoropyridin-3-yl)-1H-imidazol-2-yl)-2-(5-chloro-2-(1H-tetrazol-1-yl)phenyl)hexahydropyrrolo[1,2-a]pyrazine-1,4-dione]: the IC50 turned out to be 12 nM at Factor XIa (setting [3]) and 0.11 µM on human plasma kallikrein (setting [2]).
Turning to `O=C1C=C(c2c(-n3cnnn3)ccc(Cl)c2F)C[C@H]2CC[C@@H](c3ncc(-c4ccnc5[nH]ccc45)[nH]3)N12` (single isomer, unassigned) [Example 362, (3S,8aR*)-3-(5-(1H-pyrrolo[2,3-b]pyridin-4-yl)-1H-imidazol-2-yl)-7-(3-chloro-2-fluoro-6-(1H-tetrazol-1-yl)phenyl)-2,3,8,8a-tetrahydroindolizin-5(1H)-one], the IC50 at Factor XIa (setting [1]) was found to be 0.1 nM; on human plasma kallikrein (setting [2]), 0.0025 µM.
`O=C1C=C(c2c(-n3cnnn3)ccc(Cl)c2F)CC2CC[C@@H](c3nc(-c4ccnc(OC(F)F)c4)c(F)[nH]3)N12` (stereo in doubt) [Example 3, (S)-7-[3-Chloro-2-fluoro-6-(tetrazol-1-yl)phenyl]-3-[4-[2-(difluoromethoxy)-4-pyridyl]-5-fluoro-1H-imidazol-2-yl]-2,3,8,8a-tetrahydro-1H-indolizin-5-one]: the IC50 at Factor XIa (setting [3]) amounted to 3.9 nM; on human plasma kallikrein (setting [2]), 0.0054 µM.
On to `[2H]c1nc(C2CCC3CC(c4c(-n5cnnn5)ccc(Cl)c4F)=CC(=O)N32)[nH]c1-c1ccc(N)nc1F` (stereo in doubt) [Example 154, (3S,8aR)-3-[5-(6-amino-2-fluoro-3-pyridyl)-4-deuterio-1H-imidazol-2-yl]-7-[3-chloro-2-fluoro-6-(tetrazol-1-yl)phenyl]-2,3,8,8a-tetrahydro-1H-indolizin-5-one], for which the values for the IC50 at Factor XIa (setting [3]) and at human plasma kallikrein (setting [2]) were 0.4 nM and 0.0057 µM, respectively.
